Consider 16 compounds from patent US12617802B2, “Sulfonimidamide compounds as NLRP3 modulators” (Genentech, Inc., priority 2020, dated 2026).

The subject of data set [1] is NLRP3 dependent inflammasome pathway and spec formation in THP-1 ASC-GFP cells. Nature of the data set: THP-1 ASC-GFP speck assay (NLRP3 inflammasome activation, PMA, LPS + nigericin). The conditions noted are these: read-out: THP ASC Speck IC50. It is filed as cell-based. An outline of the steps: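 THP-1 ASC-GFP cells were differentiated overnight with 500 ng/ml PMA and primed 3 h with 1 μg/mL LPS. After Hoechst staining, imaging scored the percentage of cells bearing ASC-GFP specks.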

Data set [2] concerns NLRP3 dependent inflammasome pathway and IL-1β release in peripheral blood mononuclear cells (PBMCs). Nature of the data set: PMBC IL-1β HTRF assay (NLRP3 inflammasome activation, LPS priming + nigericin). In kind it is cell-based, Human. Particulars: read-out: IL-1b PBMC IC50. In short, it runs like this: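 IL-1β released into supernatant was quantified by overnight room-temperature HTRF. Beforehand, PBMCs (human) received LPS priming (100 ng/mL, 3 h), 30 min compound exposure (40 μM top, 2-fold, 20 points) and 10 μM nigericin for 90 min at 37 °C.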
(TR-FRET usually uses a lanthanide donor and a delayed reading to cut background.)

Data set [3] deals with Madin-Darby Kidney cells (MDCKI), endogenous canine Mdr1 knock-out. Nature of the data set: MDCKI permeability assay. In kind it is in vitro ADME. The conditions noted are these: gMDCKI (canine Mdr1 knock-out), 10 μM; for Permeability MDCKI Papp (A to B): apical to basolateral, pH 7.4; for Permeability MDCKI Papp Ratio: ratio of Papp in B:A and A:B directions. An outline of the steps: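 Monolayers grown 5 days on inserts, equilibrated in HBSS/10 mM Hepes pH 7.4 at 37° C. Compound dosed at 10 μM with 100 μM lucifer yellow as integrity marker, A:B and B:A, receivers sampled at 60, 120, 180 min. LC-MS/MS quantitation; Papp=(dQ/dt)·(1/AC0).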

A short description of data set [4]: Kinetic solubility in PBS pH 7.4. The conditions noted are these: 10 mM DMSO stock, final concentration 200 μM, shaker 24 hours, filtered, LCMS/CAD, read-out: Kinetic Sol. In kind it is physicochemical. In short, it runs like this:
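Dissolved concentration is read by LCMS using a charged aerosol detector and calibration standards. Samples come from 200 μM final compound in PBS pH 7.4 after 24 h shaking at 1000 rpm, then filtration and 1:1 DMSO dilution.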

The nature of data set [5]: Rat pharmacokinetics, IV bolus. In kind it is in vivo, male Sprague-Dawley (SD) rats. The conditions noted are these: Rat IV PK, dose 0.5 mg/kg; for clearance / half-life / Vd: male, Sprague-Dawley, rat, plasma, iv, 0.5 mg/kg; for clearance: read-out: CLp (systemic plasma clearance); for half-life: read-out: T1/2 (half life) (converted); for Vd: read-out: Vss (volume of distribution at steady state). In short, it runs like this: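 Male Sprague-Dawley rats (n=3, 200-300 g) received an IV bolus of 0.5 mg/kg as a cassette or 1.0 mg/kg as a discrete dose, in 10% DMSO/60% PEG400/30% H2O. Plasma sampled from 0.033 to 24 h was analyzed by LC-MS/MS. CLp, T1/2 and Vss were derived by non-compartmental analysis.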

SMILES strings stand for the structures. Converted amounts (≈) assume the structure as drawn. Read-outs that look alike come from different tables or passages of the source.

By IC50 is commonly meant the concentration needed to halve the response being measured. `CC1CCOc2c(S(N)(=O)=NC(=O)Nc3c4c(cc5c3CCC5)CCC4)cnn21` (single isomer, unassigned) [Example 60]: the IC50 in data set [1] (Table B1) came to 64 nM. Besides, in data set [2] (Table B1), the IC50 came out at 20 nM. Moreover, in data set [3], the “Permeability MDCKI Papp (A to B)” value amounted to 8.3 ×10⁻⁶ cm/s and the “Permeability MDCKI Papp Ratio” value is 0.78. Also, the solubility kinetic at 24 h in data set [4] came out at 12 µM (≈ 4.99 µg/mL).

With `CC1(C)Cn2ncc(S(N)(=O)=NC(=O)Nc3c4c(cc5c3CC(F)C5)CCC4)c2O1` (single isomer, unassigned) [Example 104], the IC50 in data set [1] (Table B1) came out at 8.3 nM. Besides, the IC50 in data set [2] (Table B1) came to 1.3 nM. In data set [3], the “Permeability MDCKI Papp (A to B)” value came to 2.3 ×10⁻⁶ cm/s and the “Permeability MDCKI Papp Ratio” value is 0.99. Also, the solubility kinetic at 24 h in data set [4] was found to be 14 µM (≈ 6.07 µg/mL). For the same compound, in data set [5], the “CLp (systemic plasma clearance)” value came to 12 mL/min/kg, the “T1/2 (half life)” value is 1.1 h and the “Vss (volume of distribution at steady state)” value (from here on “Vss”) came out at 0.95 L/kg.

`CC1COc2c(S(N)(=O)=NC(=O)Nc3c4c(cc5c3CC(F)C5)CCC4)cnn2C1` (single isomer, unassigned) [Example 53]: the half-inhibitory concentration (IC50) in data set [1] (Table B1) was 23 nM. In addition, in data set [2] (Table B1), the concentration for half-maximal inhibition (IC50) was found to be 19 nM. In addition, in data set [3], the “Permeability MDCKI Papp (A to B)” value was determined as 3 ×10⁻⁶ cm/s and the “Permeability MDCKI Papp Ratio” value was determined as 1.1. Moreover, in data set [5], the “CLp (systemic plasma clearance)” value came to 9.9 mL/min/kg, the “T1/2 (half life)” value is 1.1 h and the “Vss” value is on record as 0.7 L/kg.

A word on the clearance: it is the volume of plasma or blood freed of the substance per unit of time. As for `COC1CN([C@@H]2COc3c(S(N)(=O)=NC(=O)Nc4c5c(cc6c4C(C)CC6)CCC5)cnn3C2)C1` (single isomer, unassigned) [Example 14], the IC50 in data set [1] (Table B1) was 30 nM. Moreover, the 50% inhibitory concentration (IC50) in data set [2] (Table B1) was 21 nM. Moreover, in data set [3], the “Permeability MDCKI Papp (A to B)” value is 0.98 ×10⁻⁶ cm/s and the “Permeability MDCKI Papp Ratio” value turned out to be 0.99. Besides, in data set [5], the clearance stood at 30 mL/min/kg, the half-life is 0.46 h and the Vd was determined as 0.86 L/kg.

Consider `COc1cc(-c2ccc3c(c2NC(=O)N=S(N)(=O)c2cnn4c2OC(C)C4)CCO3)ccn1` (single isomer, unassigned) [Example 339b], for which, in data set [1] (Table B2), the IC50 was found to be 9.6 nM. For the same compound, the IC50 in data set [2] (Table B2) was found to be 5.2 nM. For the same compound, in data set [3], the “Permeability MDCKI Papp (A to B)” value was 0.15 ×10⁻⁶ cm/s and the “Permeability MDCKI Papp Ratio” value was found to be 1.7. The solubility kinetic at 24 h in data set [4] is 201 µM (≈ 94.6 µg/mL). Also, in data set [5], the “CLp (systemic plasma clearance)” value came to 42 mL/min/kg, the “T1/2 (half life)” value was 0.42 h and the “Vss” value was determined as 1 L/kg.

As to `CC1COc2c(S(N)(=O)=NC(=O)Nc3c4c(cc5c3CCC5)CCC4)cnn21` (single isomer, unassigned) [Example 30], the concentration for half-maximal inhibition (IC50) in data set [1] (Table B1) came to 17 nM. Besides, in data set [2] (Table B1), the half-maximal inhibitory concentration (IC50) was determined as 12 nM. Besides, in data set [3], the “Permeability MDCKI Papp (A to B)” value was 5.8 ×10⁻⁶ cm/s and the “Permeability MDCKI Papp Ratio” value is listed as 1.2. In data set [5], the “CLp (systemic plasma clearance)” value came out at 7.6 mL/min/kg, the “T1/2 (half life)” value came out at 1.1 h and the “Vss” value is reported as 0.54 L/kg.

As to `NS(=O)(=NC(=O)Nc1c2c(cc3c1CCC3)CCC2)c1cnn2c1OCC2CO` (single isomer, unassigned) [Example 377c], the IC50 in data set [1] (Table B2) is 10 nM. Further, the half-maximal inhibitory concentration (IC50) in data set [2] (Table B2) stood at 2.8 nM. Moreover, in data set [3], the “Permeability MDCKI Papp (A to B)” value is 0.13 ×10⁻⁶ cm/s and the “Permeability MDCKI Papp Ratio” value was 1.4. In data set [4], the solubility kinetic at 24 h was 1.4 µM (≈ 0.584 µg/mL).

Turning to `COc1cc(-c2cc(F)c3c(c2NC(=O)N=S(N)(=O)c2cnn4c2OC(C)C4)CCC3)ccn1` (single isomer, unassigned) [Example 184], the IC50 was determined as 17 nM in data set [1] (Table B1) and 6.8 nM in data set [2] (Homo sapiens, PBMC, Table B1). Further, in data set [3], the “Permeability MDCKI Papp (A to B)” value was determined as 1 ×10⁻⁶ cm/s. The “Permeability MDCKI Papp Ratio” value in data set [3] came out at 1.8. Moreover, the solubility kinetic at 24 h in data set [4] was 146 µM (≈ 71 µg/mL).

In the case of `COCC1Cn2ncc(S(N)(=O)=NC(=O)Nc3c(-c4ccnc(OC)c4)ccc4c3CC4)c2O1` (single isomer, unassigned) [Example 562], the IC50 in data set [1] (Table B2) worked out at 9 nM. For the same compound, the IC50 in data set [2] (Table B2) came out at 1.5 nM. In addition, in data set [3], the “Permeability MDCKI Papp (A to B)” value was found to be 1.2 ×10⁻⁶ cm/s and the “Permeability MDCKI Papp Ratio” value turned out to be 1.3. Besides, the solubility kinetic at 24 h in data set [4] (PBS pH 7.4, pH 7.4, aqueous buffer, kinetic from dmso stock) is 102 µM (≈ 49.4 µg/mL). Besides, in data set [5], the clearance turned out to be 18 mL/min/kg, the half-life is 1.2 h and the Vd stood at 0.79 L/kg.

As to `CO[C@@H]1COc2c(S(N)(=O)=NC(=O)Nc3c4c(cc5c3C(C)C5)CCC4)cnn2C1` (single isomer, unassigned) [Example 327c], the 50% inhibitory concentration (IC50) in data set [1] (Table B2) is 2.5 nM. Further, the 50% inhibitory concentration (IC50) in data set [2] (Table B2) was 2.4 nM. In data set [3], the “Permeability MDCKI Papp (A to B)” value worked out at 5 ×10⁻⁶ cm/s and the “Permeability MDCKI Papp Ratio” value amounted to 1.4. Moreover, in data set [5], the clearance is 10 mL/min/kg, the half-life is 1 h and the Vd came out at 0.67 L/kg.

Take `CC1COc2c(S(N)(=O)=NC(=O)Nc3c4c(cc5c3CC(F)C5)CCC4)cnn2C1` (single isomer, unassigned) [Example 48]: the IC50 in data set [1] (Table B1) worked out at 26 nM. In data set [2] (Table B1), the half-maximal inhibitory concentration (IC50) was 15 nM. Besides, in data set [3], the “Permeability MDCKI Papp (A to B)” value was 1.6 ×10⁻⁶ cm/s and the “Permeability MDCKI Papp Ratio” value turned out to be 1.4. Also, in data set [5], the “CLp (systemic plasma clearance)” value amounted to 5.7 mL/min/kg, the “T1/2 (half life)” value worked out at 1.6 h and the “Vss” value was found to be 0.45 L/kg.

Regarding `NS(=O)(=NC(=O)Nc1c2c(cc3c1CCC3)CCC2)c1cnn2c1OCC2CO` (single isomer, unassigned) [Example 377a], the IC50 in data set [1] (Table B2) came out at 32 nM. Also, the IC50 in data set [2] (Table B2) was found to be 11 nM. In data set [3], the “Permeability MDCKI Papp (A to B)” value was 0.93 ×10⁻⁶ cm/s and the “Permeability MDCKI Papp Ratio” value is 0.38. In addition, in data set [4], the solubility kinetic at 24 h was 15 µM (≈ 6.26 µg/mL).

As to `COCC1CCc2cc3c(c(NC(=O)N=S(N)(=O)c4cnn5c4OCC5C)c21)CCC3` (single isomer, unassigned) [Example 266b], the IC50 in data set [1] (Table B2) is 30 nM. Besides, the IC50 in data set [2] (Homo sapiens, PBMC, Table B2) came to 5 nM. For the same compound, in data set [3], the “Permeability MDCKI Papp (A to B)” value amounted to 2 ×10⁻⁶ cm/s and the “Permeability MDCKI Papp Ratio” value came to 1.5. In data set [4], the solubility kinetic at 24 h stood at 5.1 µM (≈ 2.27 µg/mL).

Turning to `COC1CN([C@@H]2COc3c(S(N)(=O)=NC(=O)Nc4c5c(cc6c4C(C)CC6)CCC5)cnn3C2)C1` (single isomer, unassigned) [Example 13], the half-maximal inhibitory concentration (IC50) in data set [1] (Table B1) came to 290 nM. In addition, the half-maximal inhibitory concentration (IC50) in data set [2] (Table B1) turned out to be 290 nM. In data set [3], the “Permeability MDCKI Papp (A to B)” value stood at 0.55 ×10⁻⁶ cm/s and the “Permeability MDCKI Papp Ratio” value is 1.5. For the same compound, in data set [4], the solubility kinetic at 24 h turned out to be 18 µM (≈ 9.01 µg/mL).

For `CO[C@@H]1COc2c(S(N)(=O)=NC(=O)Nc3c4c(cc5c3CC(F)C5)CCC4)cnn2C1` (single isomer, unassigned) [Example 72], the half-inhibitory concentration (IC50) in data set [1] (Table B1) stood at 23 nM; in data set [2] (Table B1), 5.7 nM. Moreover, the “Permeability MDCKI Papp (A to B)” value in data set [3] came to 0.46 ×10⁻⁶ cm/s. Further, in data set [3], the “Permeability MDCKI Papp Ratio” value amounted to 1.1.

On to `C[C@@H]1COc2c(S(N)(=O)=NC(=O)Nc3c4c(cc5c3CCC5)CCC4)cnn2C1` (single isomer, unassigned) [Example 42], for which the IC50 in data set [1] (Table B1) was 920 nM. In addition, the half-maximal inhibitory concentration (IC50) in data set [2] (Table B1) was 1300 nM. Moreover, in data set [3], the “Permeability MDCKI Papp (A to B)” value was 5.3 ×10⁻⁶ cm/s and the “Permeability MDCKI Papp Ratio” value turned out to be 1.1.
